Measured values published in patent US11345912B2, “Directed evolution of multivalent glycopeptides that tightly bind to target proteins” (Brandeis University, priority 2013, dated 2022).
*1 amine or outer side, *2 acyl side, *3 side chain or, on linkers, in order; H or OH if unused. [ ]: non-standard residue; d: D form. The star is where a group is joined. X1 = O=C([C@H](CCc1cn(C2CCC(OC3O[C@H](CO[C@H]4O[C@H](CO[C@H]5O[C@H](CO)[C@@H](O)[C@H](O)[C@@H]5O[C@H]5O[C@H](CO)[C@@H](O)[C@H](O)[C@@H]5O)[C@@H](O)[C@H](O[C@H]5O[C@H](CO)[C@@H](O)[C@H](O)[C@@H]5O[C@H]5O[C@H](CO)[C@@H](O)[C@H](O)[C@@H]5O)[C@@H]4O)[C@@H](O)[C@H](O[C@H]4O[C@H](CO)[C@@H](O)[C@H](O)[C@@H]4O[C@H]4O[C@H](CO)[C@@H](O)[C@H](O)[C@@H]4O[C@H]4O[C@H](CO)[C@@H](O)[C@H](O)[C@@H]4O)[C@@H]3O)CC2)nn1)N[*:1])[*:2]; For = O=C*

Legend:
2G12 [1] = test: BioLayer Interferometry (BLI) of 2G12 binding to surface-immobilized synthetic glycopeptide; settings: Table 6; evaluated by BLI, material prepared synthetically
Description: Biotinylation of 10F2 glycopeptide and determination of 2G12 binding by BLI (BioLayer Interferometry): 200 μg 10F2 glycopeptide in 5.5 μL water was treated with […] of 50 mM TCEP.HCl/1M Tris-HCl buffer, pH 7.8, under argon, using the same inert gas setup employed in the click procedure. After 4.5 h, the reaction mixture was injected into HPLC (Waters Symmetry, 300 C4, 5 μm, 4.6×250 mm, 1 mL/min, 2-42% over 60 min, retention time 46.8 min).
The 2G12 binding of the resulting biotinylated glycopeptide 3 was determined using a BLItz instrument (Fortebio). Biotin-10F2 was loaded (120 sec) onto a streptavidin biosensor as a 500 nM solution in Buffer 1 (20 mM Tris pH 7.5, 150 mM NaCl, 2 mM MgSO4, 0.20 mg/mL BSA, 0.02% Tween-20). The sensor was washed with Buffer 1 for 60 sec, after which time the net response due to loading was observed as 0.2 nm. The sensor was then equilibrated with Buffer 2 (20 mM Tris pH 7.5, 150 mM NaCl, 2 mM MgSO4, 2.0 mg/mL BSA, 0.1% v/v Tween-20) for 90 sec. 2G12 (prepared in Buffer 2) was associated at several concentrations (0.5, 1, 2, 4, 8, 16, 32 nM, in random order) for 600 sec, followed by dissociation into blank Buffer 2 for 600 sec. […]

2G12 [2] = test: Binding curve and KD determination of 2G12-glycopeptide interaction (radiolabeled glycopeptide, protein G magnetic bead capture, scintillation counting)
In short: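 Radiolabeled glycopeptide (<4 pmol) from PURE-system translation with click glycosylation was incubated with 100 nM 2G12 at room temperature. Complexes were captured on protein G beads and eluted at 70° C. Bound and unbound fractions were counted by scintillation, run at least in triplicate, and KD derived from binding curves.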

[3] = Table 4, maximal fraction bound from curve fit, error = standard error of fit

## CC[C@H](C)[C@H](NC(=O)[C@@H](NC(=O)[C@@H](NC(=O)[C@H](Cc1c[nH]cn1)NC(=O)[C@H](CC(N)=O)NC(=O)[C@H](CC(=O)O)NC(=O)[C@H](CCc1cn(C2CCC(OC3O[C@H](CO[C@H]4O[C@H](CO[C@H]5O[C@H](CO)[C@@H](O)[C@H](O)[C@@H]5O[C@H]5O[C@H](CO)[C@@H](O)[C@H](O)[C@@H]5O)[C@@H](O)[C@H](O[C@H]5O[C@H](CO)[C@@H](O)[C@H](O)[C@@H]5O[C@H]5O[C@H](CO)[C@@H](O)[C@H](O)[C@@H]5O)[C@@H]4O)[C@@H](O)[C@H](O[C@H]4O[C@H](CO)[C@@H](O)[C@H](O)[C@@H]4O[C@H]4O[C@H](CO)[C@@H](O)[C@H](O)[C@@H]4O[C@H]4O[C@H](CO)[C@@H](O)[C@H](O)[C@@H]4O)[C@@H]3O)CC2)nn1)NC(=O)[C@@H](NC(=O)[C@H](CCCCN)NC(=O)[C@H](CCC(=O)O)NC(=O)[C@H](CCCNC(=N)N)NC(=O)[C@H](CCCCN)NC(=O)[C@H](C)NC(=O)[C@H](CC(N)=O)NC(=O)[C@@H](NC(=O)[C@H](CCCCN)NC(=O)[C@@H](NC(=O)[C@H](C)NC(=O)[C@H](CCc1cn(C2CCC(OC3O[C@H](CO[C@H]4O[C@H](CO[C@H]5O[C@H](CO)[C@@H](O)[C@H](O)[C@@H]5O[C@H]5O[C@H](CO)[C@@H](O)[C@H](O)[C@@H]5O)[C@@H](O)[C@H](O[C@H]5O[C@H](CO)[C@@H](O)[C@H](O)[C@@H]5O[C@H]5O[C@H](CO)[C@@H](O)[C@H](O)[C@@H]5O)[C@@H]4O)[C@@H](O)[C@H](O[C@H]4O[C@H](CO)[C@@H](O)[C@H](O)[C@@H]4O[C@H]4O[C@H](CO)[C@@H](O)[C@H](O)[C@@H]4O[C@H]4O[C@H](CO)[C@@H](O)[C@H](O)[C@@H]4O)[C@@H]3O)CC2)nn1)NC=O)[C@@H](C)O)[C@@H](C)O)[C@@H](C)O)C(C)C)[C@@H](C)O)C(=O)N[C@@H](CCc1cn(C2CCC(OC3O[C@H](CO[C@H]4O[C@H](CO[C@H]5O[C@H](CO)[C@@H](O)[C@H](O)[C@@H]5O[C@H]5O[C@H](CO)[C@@H](O)[C@H](O)[C@@H]5O)[C@@H](O)[C@H](O[C@H]5O[C@H](CO)[C@@H](O)[C@H](O)[C@@H]5O[C@H]5O[C@H](CO)[C@@H](O)[C@H](O)[C@@H]5O)[C@@H]4O)[C@@H](O)[C@H](O[C@H]4O[C@H](CO)[C@@H](O)[C@H](O)[C@@H]4O[C@H]4O[C@H](CO)[C@@H](O)[C@H](O)[C@@H]4O[C@H]4O[C@H](CO)[C@@H](O)[C@H](O)[C@@H]4O)[C@@H]3O)CC2)nn1)C(=O)N[C@@H](CCCNC(=N)N)C(=O)N[C@@H](CO)C(=O)N[C@H](C(=O)N1CCC[C@H]1C(=O)N[C@@H](Cc1c[nH]c2ccccc12)C(=O)N[C@@H](Cc1ccc(O)cc1)C(=O)N[C@H](C(=O)N[C@@H](Cc1ccc(O)cc1)C(=O)N[C@@H](CCCNC(=N)N)C(=O)N[C@@H](Cc1c[nH]c2ccccc12)C(=O)N[C@@H](CC(C)C)C(=O)N1CCC[C@H]1C(=O)N[C@@H](CC(N)=O)C(=O)NCC(=O)N[C@@H](CO)C(=O)NCC(=O)N[C@@H](CO)C(=O)NCC(=O)N[C@@H](CSC1CC(=O)N(CCC(=O)NCCOCCOCCNC(=O)CCCC[C@@H]2SC[C@@H]3NC(=O)N[C@@H]32)C1=O)C(=O)N[C@@H](C)C(=O)O)[C@@H](C)O)[C@@H](C)CC (stereo partly drawn) [Clone 10V1-C7A, XATKTNAKREKTXDNHVTIXRSIPWYTYRWLPN]
2G12 [1]
  Kd: 4.4 nM

## CC[C@H](C)[C@H](NC(=O)[C@H](CO)NC(=O)[C@@H](NC(=O)[C@H](CCc1cn(C2CCC(OC3O[C@H](CO[C@H]4O[C@H](CO[C@H]5O[C@H](CO)[C@@H](O)[C@H](O)[C@@H]5O[C@H]5O[C@H](CO)[C@@H](O)[C@H](O)[C@@H]5O)[C@@H](O)[C@H](O[C@H]5O[C@H](CO)[C@@H](O)[C@H](O)[C@@H]5O[C@H]5O[C@H](CO)[C@@H](O)[C@H](O)[C@@H]5O)[C@@H]4O)[C@@H](O)[C@H](O[C@H]4O[C@H](CO)[C@@H](O)[C@H](O)[C@@H]4O[C@H]4O[C@H](CO)[C@@H](O)[C@H](O)[C@@H]4O[C@H]4O[C@H](CO)[C@@H](O)[C@H](O)[C@@H]4O)[C@@H]3O)CC2)nn1)NC=O)[C@@H](C)O)C(=O)N1CCC[C@H]1C(=O)N[C@@H](Cc1ccc(O)cc1)C(=O)N[C@H](C(=O)N[C@@H](Cc1ccc(O)cc1)C(=O)N[C@@H](CC(C)C)C(=O)N[C@@H](CC(N)=O)C(=O)N[C@@H](CCCNC(=N)N)C(=O)N[C@@H](CO)C(=O)N[C@@H](CC(C)C)C(=O)N[C@@H](Cc1c[nH]c2ccccc12)C(=O)N[C@H](C(=O)N[C@@H](CC(N)=O)C(=O)N[C@@H](Cc1ccc(O)cc1)C(=O)N[C@@H](CCCNC(=N)N)C(=O)N[C@H](C(=O)N[C@@H](CC(N)=O)C(=O)N[C@@H](CO)C(=O)N[C@@H](Cc1c[nH]c2ccccc12)C(=O)N[C@@H](CO)C(=O)N[C@@H](CCc1cn(C2CCC(OC3O[C@H](CO[C@H]4O[C@H](CO[C@H]5O[C@H](CO)[C@@H](O)[C@H](O)[C@@H]5O[C@H]5O[C@H](CO)[C@@H](O)[C@H](O)[C@@H]5O)[C@@H](O)[C@H](O[C@H]5O[C@H](CO)[C@@H](O)[C@H](O)[C@@H]5O[C@H]5O[C@H](CO)[C@@H](O)[C@H](O)[C@@H]5O)[C@@H]4O)[C@@H](O)[C@H](O[C@H]4O[C@H](CO)[C@@H](O)[C@H](O)[C@@H]4O[C@H]4O[C@H](CO)[C@@H](O)[C@H](O)[C@@H]4O[C@H]4O[C@H](CO)[C@@H](O)[C@H](O)[C@@H]4O)[C@@H]3O)CC2)nn1)C(=O)N[C@@H](CO)C(=O)N[C@@H](CCCCN)C(=O)N[C@@H](CC(N)=O)C(=O)N[C@H](C(=O)N[C@@H](CC(N)=O)C(=O)N[C@H](C(=O)N[C@@H](CCc1cn(C2CCC(OC3O[C@H](CO[C@H]4O[C@H](CO[C@H]5O[C@H](CO)[C@@H](O)[C@H](O)[C@@H]5O[C@H]5O[C@H](CO)[C@@H](O)[C@H](O)[C@@H]5O)[C@@H](O)[C@H](O[C@H]5O[C@H](CO)[C@@H](O)[C@H](O)[C@@H]5O[C@H]5O[C@H](CO)[C@@H](O)[C@H](O)[C@@H]5O)[C@@H]4O)[C@@H](O)[C@H](O[C@H]4O[C@H](CO)[C@@H](O)[C@H](O)[C@@H]4O[C@H]4O[C@H](CO)[C@@H](O)[C@H](O)[C@@H]4O[C@H]4O[C@H](CO)[C@@H](O)[C@H](O)[C@@H]4O)[C@@H]3O)CC2)nn1)C(=O)N1CCC[C@H]1C(=O)N[C@@H](CC(C)C)C(=O)NCC(=O)N[C@@H](CO)C(=O)NCC(=O)N[C@@H](CO)C(=O)N[C@@H](CC(C)C)C(=O)NCC(=O)N[C@@H](Cc1c[nH]cn1)C(=O)N[C@@H](Cc1c[nH]cn1)C(=O)N[C@@H](Cc1c[nH]cn1)C(=O)N[C@@H](Cc1c[nH]cn1)C(=O)N[C@@H](Cc1c[nH]cn1)C(=O)N[C@@H](Cc1c[nH]cn1)C(=O)N[C@@H](CCCNC(=N)N)C(=O)N[C@@H](CC(=O)O)C(=O)N[C@@H](Cc1ccc(O)cc1)C(=O)N[C@@H](CCCCN)C(=O)N[C@@H](CC(=O)O)C(=O)N[C@@H](CC(=O)O)C(=O)N[C@@H](CC(=O)O)C(=O)N[C@@H](CC(=O)O)C(=O)N[C@@H](CCCCN)C(=O)O)C(C)C)C(C)C)C(C)C)[C@@H](C)O)[C@@H](C)O (stereo partly drawn) [Clone 10V9, XTSIPYTYLNRSLWTNYRVNSWSXSKNVNVXPL]
2G12 [2]; [3]
  Fmax [%]: 85 ± 0.68%
2G12 [2]; Table 4, ribosomally translated radiolabeled glycopeptide with His6/FLAG tag, room temperature, fit Fbound=(Fmax[2G12])/(KD+[2G12]), error = standard error of fit
  Kd: 3.9 ± 0.11 nM

## For-[X1]PNCITQQDVR[X1]TSIPYTYTWPGSGSLGHHHHHHRDYKDDDDK-OH [Clone 10F3-Δ11, XPNCITQQDVRXTSIPYTYTWP]
2G12 [2]; Table 6 mutational analysis, radioactive bead binding assay
  Fmax [%]: 32%
2G12 [2]; Table 6 mutational analysis, radioactive bead binding assay, ribosomally translated
  Kd: 25 nM

## XIRXRTPTSRLXSTXRGXTXNXTSXITPRNDXI [Clone 7V8]
2G12 [2]; [3]
  Fmax [%]: 108 ± 12%
